Measured values published in patent US20060069132A1, “Azolecarboxamide herbicides” (priority 2004, published 2006).

Columns and labels:
[1] = system: small flower umbrella sedge; assay: Test B flooded paddy test; format: in vivo, Cyperus difformis; conditions: 1000 g ai/ha, scale 0 to 100 (0 no effect, 100 complete control)
How it was run: (§1)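 Visual control ratings, 0–100 versus untreated controls, taken after 13 to 15 days in the greenhouse. Blackgrass received a postemergence spray at the 1- to 4-leaf stage (2–18 cm); ducksalad, umbrella sedge and barnyardgrass were flooded-paddy treated at 2 leaves.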

giant foxtail = assay: Test B pre-/postemergence herbicide test; format: in vivo, Setaria faberi; conditions: for Foxtail, Giant plant response rating (0 to 100 scale) / Plant response rating, Foxtail, Giant: 0 = no effect, 100 = complete control, preemergence; for Foxtail, Giant plant response rating: postemergence
How it was run: (§2)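 Pre: seeds sown, then sprayed. Post: 1–4-leaf plants (2–18 cm) sprayed at the same time. Paddy: flooded, treated at 2-leaf stage. Formulation: non-phytotoxic solvent with surfactant. Greenhouse 13–15 days; visual 0–100 score relative to controls.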

cocklebur = assay: Test B pre-/postemergence herbicide test; format: in vivo, Xanthium strumarium; conditions: for Cocklebur plant response rating (0 to 100 scale) / Plant response rating, Cocklebur: 0 = no effect, 100 = complete control, preemergence; for Plant response rating, Cocklebur / Cocklebur plant response rating: visual rating; for Cocklebur plant response rating: postemergence, scale 0 (no effect) to 100 (complete control)
How it was run: (§3)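 Response was scored visually 13 to 15 days after treatment against untreated greenhouse controls, 0 meaning no effect and 100 complete control. Formulations (solvent mixture plus surfactant) went onto soil after planting, onto foliage of 1- to 4-leaf plants, and onto 2-leaf plants in a flooded paddy set including rice and barnyardgrass.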

barnyardgrass [2] = assay: Test B pre-/postemergence herbicide test; format: in vivo, Echinochloa crus-galli; conditions: for Barnyardgrass plant response rating (0 to 100 scale) / Plant response rating, Barnyardgrass: 0 = no effect, 100 = complete control, preemergence; for Plant response rating, Barnyardgrass / Barnyardgrass plant response rating: visual rating; for Barnyardgrass plant response rating: postemergence, scale 0 (no effect) to 100 (complete control)
How it was run: as §3

ducksalad = assay: Test B flooded paddy test; format: in vivo, Heteranthera limosa; conditions: 1000 g ai/ha, scale 0 to 100 (0 no effect, 100 complete control)
How it was run: as §1

rice = assay: Test B flooded paddy test; format: in vivo, Oryza sativa; conditions: 1000 g ai/ha, scale 0 to 100 (0 no effect, 100 complete control)
How it was run: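 Plants grow to 1- to 4-leaf stage (2–18 cm) for postemergence spraying, or to 2-leaf stage for the paddy test. Formulated compound is applied. Greenhouse holding lasts 13–15 days. Response is scored visually relative to controls, 0 no effect to 100 complete control; a dash means no result.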

velvetleaf = assay: Test B pre-/postemergence herbicide test; format: in vivo, Abutilon theophrasti; conditions: for Velvetleaf plant response rating (0 to 100 scale) / Plant response rating, Velvetleaf: 0 = no effect, 100 = complete control, preemergence; for Velvetleaf plant response rating: postemergence
How it was run: as §2

large crabgrass = assay: Test B pre-/postemergence herbicide test; format: in vivo, Digitaria sanguinalis; conditions: for Crabgrass, Large plant response rating (0 to 100 scale) / Plant response rating, Crabgrass, Large: 0 = no effect, 100 = complete control, preemergence; for Crabgrass, Large plant response rating: postemergence
How it was run: as §2

pigweed = assay: Test B pre-/postemergence herbicide test; format: in vivo, Amaranthus retroflexus; conditions: for Pigweed plant response rating: postemergence
How it was run: as §2

blackgrass = assay: Test B postemergence herbicide test; format: in vivo, Alopecurus myosuroides; conditions: postemergence, visual rating, scale 0 (no effect) to 100 (complete control)
How it was run: as §1

corn = assay: Test B pre-/postemergence herbicide test; format: in vivo, Zea mays; conditions: for Corn plant response rating (0 to 100 scale) / Plant response rating, Corn: 0 = no effect, 100 = complete control, preemergence; for Corn plant response rating: postemergence
How it was run: as §2

wheat = assay: Test B postemergence herbicide test; format: in vivo, Triticum aestivum; set-up: key to Wheat plant response rating: 0 = no effect, 100 = complete control; conditions: postemergence
How it was run: (§4)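 Treated at 2-leaf (paddy) or 1–4-leaf, 2–18 cm (postemergence); greenhouse 13–15 d; visual score vs control, 0 none to 100 complete control; dash = not tested.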

Surinam grass = assay: Test B pre-/postemergence herbicide test; format: in vivo, Urochloa decumbens; conditions: for Surinam Grass plant response rating (0 to 100 scale) / Plant response rating, Surinam Grass: 0 = no effect, 100 = complete control, preemergence; for Surinam Grass plant response rating: postemergence
How it was run: as §2

barnyardgrass [3] = assay: Test B flooded paddy test; format: in vivo, Echinochloa crus-galli; conditions: 1000 g ai/ha, scale 0 to 100 (0 no effect, 100 complete control)
How it was run: as §1

wild oat = assay: Test B postemergence herbicide test; format: in vivo, Avena fatua; conditions: postemergence
How it was run: as §4

[4] = 125 g ai/ha, visual rating, scale 0 (no effect) to 100 (complete control)
[5] = 500 g ai/ha, scale 0 to 100, 0 is no effect, 100 is complete control
[6] = 125 g ai/ha, 0 = no effect, 100 = complete control, preemergence

CCn1nc(C(C)(C)C)cc1C(=O)Nc1cc(C(=O)N2CCCC2)ccc1F [Compound 242]
Sedge, Umbrella plant response rating [1]: 90
Foxtail, Giant plant response rating (0 to 100 scale) (giant foxtail; 125 g ai/ha): 80
Plant response rating, Foxtail, Giant (giant foxtail; 500 g ai/ha, visual rating): 90
Foxtail, Giant plant response rating (giant foxtail; [4]): 20
Foxtail, Giant plant response rating (giant foxtail; [5]): 30
Cocklebur plant response rating (0 to 100 scale) (cocklebur; 125 g ai/ha): 10
Plant response rating, Cocklebur (cocklebur; 500 g ai/ha): 40
Cocklebur plant response rating (cocklebur; 125 g ai/ha): 40
Cocklebur plant response rating (cocklebur; 500 g ai/ha): 90
Barnyardgrass plant response rating (0 to 100 scale) (barnyardgrass [2]; 125 g ai/ha): 80
Plant response rating, Barnyardgrass (barnyardgrass [2]; 500 g ai/ha): 100
Barnyardgrass plant response rating (barnyardgrass [2]; 125 g ai/ha): 50
Barnyardgrass plant response rating (barnyardgrass [2]; 500 g ai/ha): 60
Ducksalad plant response rating (ducksalad): 90
Rice plant response rating (rice): 90
Velvetleaf plant response rating (0 to 100 scale) (velvetleaf; 125 g ai/ha): 50
Plant response rating, Velvetleaf (velvetleaf; 500 g ai/ha, visual rating): 100
Velvetleaf plant response rating (velvetleaf; [4]): 50
Velvetleaf plant response rating (velvetleaf; [5]): 60
Crabgrass, Large plant response rating (0 to 100 scale) (large crabgrass; 125 g ai/ha): 90
Plant response rating, Crabgrass, Large (large crabgrass; 500 g ai/ha, visual rating): 100
Crabgrass, Large plant response rating (large crabgrass; [4]): 30
Crabgrass, Large plant response rating (large crabgrass; [5]): 50
Pigweed plant response rating (0 to 100 scale) (pigweed; [6]): 100
Plant response rating, Pigweed (pigweed; 500 g ai/ha, visual rating, 0 = no effect, 100 = complete control, preemergence): 100
Pigweed plant response rating (pigweed; [4]): 60
Pigweed plant response rating (pigweed; [5]): 80
Blackgrass plant response rating (blackgrass; 125 g ai/ha): 10
Blackgrass plant response rating (blackgrass; 500 g ai/ha): 20
Corn plant response rating (0 to 100 scale) (corn; 125 g ai/ha): 30
Plant response rating, Corn (corn; 500 g ai/ha, visual rating): 60
Corn plant response rating (corn; [4]): 10
Corn plant response rating (corn; [5]): 40
Wheat plant response rating (wheat; [4]): 10
Wheat plant response rating (wheat; [5]): 10
Surinam Grass plant response rating (0 to 100 scale) (Surinam grass; 125 g ai/ha): 70
Plant response rating, Surinam Grass (Surinam grass; 500 g ai/ha, visual rating): 90
Surinam Grass plant response rating (Surinam grass; [4]): 30
Surinam Grass plant response rating (Surinam grass; [5]): 60
Barnyardgrass plant response rating (barnyardgrass [3]): 90
Oat, Wild plant response rating (wild oat; [4]): 10
Oat, Wild plant response rating (wild oat; [5]): 30

CCn1nc(C(C)(C)C)cc1C(=O)Nc1cc(C(=O)OC(C)C)c(F)cc1F [Compound 248]
Sedge, Umbrella plant response rating [1]: 50
Foxtail, Giant plant response rating (0 to 100 scale) (giant foxtail; 125 g ai/ha): 20
Plant response rating, Foxtail, Giant (giant foxtail; 500 g ai/ha, visual rating): 60
Foxtail, Giant plant response rating (giant foxtail; [4]): 20
Foxtail, Giant plant response rating (giant foxtail; [5]): 30
Cocklebur plant response rating (0 to 100 scale) (cocklebur; 125 g ai/ha): 0
Plant response rating, Cocklebur (cocklebur; 500 g ai/ha): 0
Cocklebur plant response rating (cocklebur; 125 g ai/ha): 30
Cocklebur plant response rating (cocklebur; 500 g ai/ha): 50
Barnyardgrass plant response rating (0 to 100 scale) (barnyardgrass [2]; 125 g ai/ha): 0
Plant response rating, Barnyardgrass (barnyardgrass [2]; 500 g ai/ha): 20
Barnyardgrass plant response rating (barnyardgrass [2]; 125 g ai/ha): 10
Barnyardgrass plant response rating (barnyardgrass [2]; 500 g ai/ha): 40
Ducksalad plant response rating (ducksalad): 30
Rice plant response rating (rice): 50
Velvetleaf plant response rating (0 to 100 scale) (velvetleaf; 125 g ai/ha): 0
Plant response rating, Velvetleaf (velvetleaf; 500 g ai/ha, visual rating): 20
Velvetleaf plant response rating (velvetleaf; [4]): 20
Velvetleaf plant response rating (velvetleaf; [5]): 30
Crabgrass, Large plant response rating (0 to 100 scale) (large crabgrass; 125 g ai/ha): 20
Plant response rating, Crabgrass, Large (large crabgrass; 500 g ai/ha, visual rating): 40
Crabgrass, Large plant response rating (large crabgrass; [4]): 10
Crabgrass, Large plant response rating (large crabgrass; [5]): 20
Pigweed plant response rating (0 to 100 scale) (pigweed; [6]): 0
Pigweed plant response rating (pigweed; [4]): 60
Pigweed plant response rating (pigweed; [5]): 80
Blackgrass plant response rating (blackgrass; 125 g ai/ha): 20
Blackgrass plant response rating (blackgrass; 500 g ai/ha): 30
Corn plant response rating (0 to 100 scale) (corn; 125 g ai/ha): 0
Plant response rating, Corn (corn; 500 g ai/ha, visual rating): 0
Corn plant response rating (corn; [4]): 20
Corn plant response rating (corn; [5]): 30
Wheat plant response rating (wheat; [4]): 30
Wheat plant response rating (wheat; [5]): 40
Surinam Grass plant response rating (0 to 100 scale) (Surinam grass; 125 g ai/ha): 20
Plant response rating, Surinam Grass (Surinam grass; 500 g ai/ha, visual rating): 60
Surinam Grass plant response rating (Surinam grass; [4]): 10
Surinam Grass plant response rating (Surinam grass; [5]): 20
Barnyardgrass plant response rating (barnyardgrass [3]): 40
Oat, Wild plant response rating (wild oat; [4]): 30
Oat, Wild plant response rating (wild oat; [5]): 60
